Assay results: the NIST ThermoML archive (doi:10.1007/s10765-010-0860-3)

Assay: xn = mol fraction of the nth substance listed
Conditions: 101 kPa, Liquid; for viscosity: Capillary tube (Ostwald / Ubbelohde) method; for mass density: Pycnometric method

CC(=O)CC(C)=O [2,4-pentanedione] + CC1COC(=O)O1
Conditions | mass density, 288.15 K [kg/m3] | mass density, 298.15 K [kg/m3] | mass density, 308.15 K [kg/m3] | viscosity, 288.15 K [mPa·s] | viscosity, 298.15 K [mPa·s] | viscosity, 308.15 K [mPa·s]
x2 = 0 | 980.34 | 972.18 | 963.46 | 0.741 | 0.67 | 0.609
x2 = 0.0212 | 984.24 | 975.79 | 966.83 | 0.769 | 0.692 | 0.627
x2 = 0.0438 | 988.61 | 979.89 | 970.69 | 0.797 | 0.714 | 0.646
x2 = 0.0625 | 992.42 | 983.48 | 974.11 | 0.821 | 0.732 | 0.661
x2 = 0.0827 | 996.68 | 987.54 | 977.99 | 0.845 | 0.751 | 0.677
x2 = 0.1026 | 1001.03 | 991.71 | 982 | 0.868 | 0.769 | 0.693
x2 = 0.201 | 1024.5 | 1014.55 | 1004.29 | 0.978 | 0.857 | 0.766
x2 = 0.2982 | 1050.05 | 1039.83 | 1029.34 | 1.086 | 0.944 | 0.838
x2 = 0.4028 | 1078.89 | 1068.64 | 1058.14 | 1.215 | 1.047 | 0.922
x2 = 0.5 | 1105.74 | 1095.61 | 1085.24 | 1.359 | 1.162 | 1.014
x2 = 0.6016 | 1132.67 | 1122.7 | 1112.52 | 1.549 | 1.313 | 1.133
x2 = 0.6985 | 1156.08 | 1146.19 | 1136.15 | 1.782 | 1.495 | 1.277
x2 = 0.7995 | 1176.95 | 1166.95 | 1156.95 | 2.093 | 1.735 | 1.466
x2 = 0.9016 | 1193.11 | 1182.69 | 1172.51 | 2.493 | 2.04 | 1.706

CC1COC(=O)O1 (configuration not stated) [4-methyl-1,3-dioxolan-2-one] + C1CCOC1
Conditions | mass density, 288.15 K [kg/m3] | mass density, 298.15 K [kg/m3] | mass density, 308.15 K [kg/m3] | viscosity, 288.15 K [mPa·s] | viscosity, 298.15 K [mPa·s] | viscosity, 308.15 K [mPa·s]
x1 = 0.0188 | 901.15 | 890.25 | 879.17 | 0.524 | 0.47 | 0.432
x1 = 0.0393 | 910.03 | 899.18 | 888.14 | 0.542 | 0.479 | 0.439
x1 = 0.0603 | 918.97 | 908.19 | 897.18 | 0.561 | 0.49 | 0.448
x1 = 0.077 | 926 | 915.27 | 904.28 | 0.575 | 0.5 | 0.455
x1 = 0.0988 | 935.05 | 924.38 | 913.41 | 0.594 | 0.513 | 0.466
x1 = 0.2117 | 979.75 | 969.45 | 958.45 | 0.696 | 0.6 | 0.541
x1 = 0.3057 | 1014.39 | 1004.06 | 993.26 | 0.794 | 0.699 | 0.629
x1 = 0.4024 | 1047.72 | 1037.25 | 1026.68 | 0.921 | 0.831 | 0.745
x1 = 0.4992 | 1078.98 | 1068.45 | 1057.96 | 1.088 | 0.998 | 0.89
x1 = 0.5997 | 1109.33 | 1098.74 | 1088.29 | 1.317 | 1.211 | 1.072
x1 = 0.7015 | 1138.16 | 1127.39 | 1117.06 | 1.626 | 1.473 | 1.289
x1 = 0.8033 | 1165.19 | 1154.55 | 1144.02 | 2.03 | 1.786 | 1.54
x1 = 0.9064 | 1190.96 | 1179.68 | 1169.74 | 2.556 | 2.158 | 1.83
x1 = 1 | 1208.67 | 1197.58 | 1187.16 | 3.086 | 2.5 | 2.073

CC1COC(=O)O1 (configuration not stated) [4-methyl-1,3-dioxolan-2-one] + C1COCCO1
Conditions | mass density, 288.15 K [kg/m3] | mass density, 298.15 K [kg/m3] | mass density, 308.15 K [kg/m3] | viscosity, 288.15 K [mPa·s] | viscosity, 298.15 K [mPa·s] | viscosity, 308.15 K [mPa·s]
x1 = 0.0213 | 1042.6 | 1031.46 | 1020.15 | 1.429 | 1.181 | 1.027
x1 = 0.041 | 1045.89 | 1034.79 | 1023.54 | 1.421 | 1.177 | 1.027
x1 = 0.0636 | 1049.76 | 1038.7 | 1027.51 | 1.413 | 1.174 | 1.02
x1 = 0.0823 | 1053.01 | 1041.99 | 1030.85 | 1.408 | 1.173 | 1.026
x1 = 0.0999 | 1056.12 | 1045.13 | 1034.02 | 1.404 | 1.172 | 1.022
x1 = 0.202 | 1074.8 | 1064.02 | 1053.09 | 1.408 | 1.184 | 1.028
x1 = 0.299 | 1093.28 | 1082.69 | 1071.87 | 1.45 | 1.22 | 1.053
x1 = 0.3991 | 1112.62 | 1101.92 | 1091.44 | 1.534 | 1.286 | 1.102
x1 = 0.4991 | 1131.72 | 1121.15 | 1110.7 | 1.659 | 1.381 | 1.171
x1 = 0.5987 | 1150.06 | 1139.4 | 1129.1 | 1.826 | 1.508 | 1.274
x1 = 0.6996 | 1167.4 | 1156.75 | 1146.43 | 2.039 | 1.671 | 1.405
x1 = 0.8049 | 1183.66 | 1172.85 | 1162.59 | 2.307 | 1.878 | 1.571
x1 = 0.9003 | 1196.16 | 1185.45 | 1175.02 | 2.589 | 2.101 | 1.748
x1 = 1 | 1208.67 | 1197.58 | 1187.16 | 3.086 | 2.5 | 2.073
